Experimental findings from the OligoGym collection are described below.

Where “and” joins values, the source holds several entries; their conditions need not be identical. Equal values may be shown once. After the bases stand the sugars from the 5' end (letter, count) and the backbone: PS all phosphorothioate, else s phosphorothioate and o phosphodiester by linkage. Methylation of C is not given here. e = 2'-O-(2-methoxyethyl) (MOE); k = constrained ethyl (cEt); d = 2'-deoxy (DNA)

For the first data set, the target named is IRF4. The following applies: ASO, MM.1R, 0.0625 µM.
For the sequence ATTATATACTGGTTGG (sugars k3 d10 k3, PS), the target mRNA inhibition is 3% and 9%.

Staying with this data set, now noted: ASO, MM.1R, 0.074 µM.
Regarding CAATTTATGCCATGGA (sugars k3 d10 k3, PS), the target mRNA inhibition was -4%.
The same measure, in the same setting: next, CAGTGATGTCAGGTTT (sugars k3 d10 k3, PS): 22%.

Staying with this data set, now noted: ASO, MM.1R, 0.222 µM.
CAATTTATGCCATGGA (sugars k3 d10 k3, PS): the target mRNA inhibition worked out at 5%.
Still for that read-out and setting: next, CAGTGATGTCAGGTTT (sugars k3 d10 k3, PS): 39%.

Staying with this data set, now noted: ASO, MM.1R, 0.25 µM.
As to ATTATATACTGGTTGG (sugars k3 d10 k3, PS), the target mRNA inhibition was 15% and 25%.

The data set is the same for the next values; noted with them: ASO, MM.1R, 0.666 µM.
On to CAATTTATGCCATGGA (sugars k3 d10 k3, PS), for which the target mRNA inhibition turned out to be 9%.
Still for that read-out and setting: with CAGTGATGTCAGGTTT (sugars k3 d10 k3, PS) the figure was 62%.

Still in this data set, the particulars now being: ASO, MM.1R, 1 µM.
With ATCTGAGACTACACCT (sugars k3 d10 k3, PS), the target mRNA inhibition is -8%.
The same measure, in the same setting: with ATGAACCCTAAGTTTA (sugars k3 d10 k3, PS) the figure was -4%; with ATGAGGGACCAGAACT (sugars k3 d10 k3, PS), 6%; with ATGCCATGGACAAGTT (sugars k3 d10 k3, PS), 18%.
Same read-out and setting: with ATGCGGAGGTTCCTTG (sugars k3 d10 k3, PS) the figure was 47% and 52%; with ATGCTGAACCCCACAG (sugars k3 d10 k3, PS), 16%.
With ATGGCAAAAGACCAAT (sugars k3 d10 k3, PS), the target mRNA inhibition is -5%.
Same read-out and setting: next, ATGGCGCATAGGTCCT (sugars k3 d10 k3, PS): -5%; ATGGCTAAACCTGGCA (sugars k3 d10 k3, PS): 22%; ATGTAAAGTCTGCTGA (sugars k3 d10 k3, PS): 20%.
Still for that read-out and setting: next, “ATGTGATAGCTGAGCT (sugars kdddddddddkekeke, PS)”: 15%.
Still for that read-out and setting: next, “ATGTGATAGCTGAGCT (sugars kkdddddddddekeke, PS)”: 2%; “ATGTGATAGCTGAGCT (sugars kkdddddddddkdkdk, PS)”: 27%; “ATGTGTATTACTCTTA (sugars k2 d9 e3 k2, PS)”: 40% and 44%.
On to “ATGTGTATTACTCTTA (sugars kkdddddddddekeke, PS)”, for which the target mRNA inhibition was 60% and 61%.
The same measure, in the same setting: with “ATGTTAGCCAATTCCT (sugars kddddddddddkekek, PS)” the figure was 0% and 7%.
As to ATTACTCTTAGGCACA (sugars k3 d10 k3, PS), the target mRNA inhibition worked out at 30%.
Regarding ATTATATACTGGTTGG (sugars k3 d10 k3, PS), the target mRNA inhibition is 39% and 57%.
On to “ATTATATACTGGTTGG (sugars kddddddddddkekek, PS)”, for which the target mRNA inhibition stood at 22%.
On to “ATTATATACTGGTTGG (sugars kkddddddddddkeke, PS)”, for which the target mRNA inhibition was found to be 32%.
The same measure, in the same setting: with “ATTATATACTGGTTGG (sugars kkdddddddddkekek, PS)” the figure was 52%; with ATTCAATGCACCCCCC (sugars k3 d10 k3, PS), 2%; with ATTCAGGAGAGCCCCT (sugars k3 d10 k3, PS), -15%.
Same read-out and setting: with ATTTCCGGGTGTGGCT (sugars k3 d10 k3, PS) the figure was 7%; with “CAAGCAGTGATGTCAG (sugars k2 d9 e3 k2, PS)”, 15% and 8%.
As to “CAAGCAGTGATGTCAG (sugars kdddddddddkekeke, PS)”, the target mRNA inhibition is 10% and 12%.
Turning to “CAAGTGTCTAAAGTCC (sugars kkddddddddddkeke, PS)”, the target mRNA inhibition was 16% and 17%.
With “CACATCAATGTTTTAG (sugars kkddddddddddkeke, PS)”, the target mRNA inhibition is 25% and 39%.
“CACATCAATGTTTTAG (sugars kkdddddddddekeke, PS)”: the target mRNA inhibition is 28% and 27%.
On the same count and under the same terms, next, CACATGATAAGGCACT (sugars k3 d10 k3, PS): 21%; CACCAATGGCAGCACC (sugars k3 d10 k3, PS): 16%; CACCAGCCATCGGCAG (sugars k3 d10 k3, PS): -19%.
Turning to CACCTCTTCACTACCT (sugars k3 d10 k3, PS), the target mRNA inhibition is 0%.
On the same count and under the same terms, next, CACTCTTACTCCGCTG (sugars k3 d10 k3, PS): -12%.
On the same count and under the same terms, with CACTTTGTACGGGTCT (sugars k3 d10 k3, PS) the figure was 11%.
As for CAGAGCCAACTTATAG (sugars k3 d10 k3, PS), the target mRNA inhibition is 30% and 43%.
The same measure, in the same setting: next, CAGATTGAATCCATAT (sugars k3 d10 k3, PS): 20%.
The same measure, in the same setting: with CAGGAACTGACCTAAC (sugars k3 d10 k3, PS) the figure was -7%.
Still for that read-out and setting: next, CAGGCGGACACGCCCG (sugars k3 d10 k3, PS): -5%.
Regarding “CAGTGACTTGCATCCA (sugars kddddddddddkekek, PS)”, the target mRNA inhibition turned out to be 29%.
Same read-out and setting: next, “CAGTGACTTGCATCCA (sugars kdddddddddkekeke, PS)”: 19%; “CAGTGACTTGCATCCA (sugars kkddddddddddkeke, PS)”: 33%.
The same measure, in the same setting: next, CAGTGATGTCAGGTTT (sugars k3 d10 k3, PS): 62%; “CAGTGATGTCAGGTTT (sugars kdddddddddkekeke, PS)”: 48%.

The same data set, now with this note: ASO, MM.1R, 2 µM.
Turning to CAATTTATGCCATGGA (sugars k3 d10 k3, PS), the target mRNA inhibition worked out at 40%.
On the same count and under the same terms, with CAGTGATGTCAGGTTT (sugars k3 d10 k3, PS) the figure was 85%.

Staying with this data set, now noted: ASO, MM.1R, 4 µM.
As for ATTATATACTGGTTGG (sugars k3 d10 k3, PS), the target mRNA inhibition was 77% and 74%.

The data set is the same for the next values; noted with them: ASO, SK-MEL-28, 4 µM.
As to ATCTGGATGAGCTTAC (sugars k3 d10 k3, PS), the target mRNA inhibition is 38%.
For the sequence ATGAAAGTGTGTGCAA (sugars k3 d10 k3, PS), the target mRNA inhibition amounted to 64%.
Regarding ATGAACGGAAGTTTAC (sugars k3 d10 k3, PS), the target mRNA inhibition amounted to 54%.
Same read-out and setting: with ATGACATGCTTTGTCC (sugars k3 d10 k3, PS) the figure was 46%.
In the case of ATGAGAAACGGCCTGG (sugars k3 d10 k3, PS), the target mRNA inhibition worked out at 64%.
Turning to ATGAGAACTTTGATGT (sugars k3 d10 k3, PS), the target mRNA inhibition is 15%.
Same read-out and setting: with ATGCGAAGAATTTTAG (sugars k3 d10 k3, PS) the figure was 21%; with ATGGAAATACGACAAC (sugars k3 d10 k3, PS), 35%; with ATGTAGTTGTGAACCT (sugars k3 d10 k3, PS), 39%.
On the same count and under the same terms, next, ATGTATACCAACGACA (sugars k3 d10 k3, PS): 63%; ATGTGGAGCTCCTCCT (sugars k3 d10 k3, PS): 20%.
Same read-out and setting: with ATTAAAGAGCGCATTT (sugars k3 d10 k3, PS) the figure was 13%.
On to ATTCACACTGCCGTGA (sugars k3 d10 k3, PS), for which the target mRNA inhibition amounted to 34%.
Same read-out and setting: with ATTCATGATGTATACC (sugars k3 d10 k3, PS) the figure was 62%.
Same read-out and setting: with ATTGCCTGTTAAGTCC (sugars k3 d10 k3, PS) the figure was 73%; with ATTTACAGCATCTAAG (sugars k3 d10 k3, PS), 47%; with ATTTCATAGCTAGTTC (sugars k3 d10 k3, PS), 44%.
Still for that read-out and setting: next, CAAAACCAGTACAGTC (sugars k3 d10 k3, PS): 49%; CAAAATAGTCACTCAC (sugars k3 d10 k3, PS): -3%; CAAACCCTACTGGGTA (sugars k3 d10 k3, PS): 32%.
For CAAACTCCTCAGGGAA (sugars k3 d10 k3, PS), the target mRNA inhibition is 23%.
Same read-out and setting: next, CAAAGCATAGAGTCAC (sugars k3 d10 k3, PS): 36%; CAACAGGCGGACACGC (sugars k3 d10 k3, PS): 42%.
Still for that read-out and setting: next, CAACCATTTTCACAAG (sugars k4 d8 k4, PS): 5%; CAAGAAGGATGGGACC (sugars k3 d10 k3, PS): 25%; CAAGCTGGGCCTTGCC (sugars k3 d10 k3, PS): 34%.
Same read-out and setting: with CAAGGAGATCCACCTG (sugars k3 d10 k3, PS) the figure was -21%.
Consider CAATGAACGGAAGTTT (sugars k3 d10 k3, PS), for which the target mRNA inhibition came to 33%.
For CAATTTATGCCATGGA (sugars k3 d10 k3, PS), the target mRNA inhibition was 62%.
Same read-out and setting: next, CACAGAGGACTTCGGG (sugars k3 d10 k3, PS): 49%.
Regarding CACATAATCCAGTATC (sugars k3 d10 k3, PS), the target mRNA inhibition amounted to 43%.
The same measure, in the same setting: next, CACGGACGGAGGCGGC (sugars k3 d10 k3, PS): 18%; CACTACCATATTGGAA (sugars k3 d10 k3, PS): 22%; CACTGAACCATGTTCC (sugars k3 d10 k3, PS): 61%.
For the sequence CAGAAACCCTCATCAC (sugars k3 d10 k3, PS), the target mRNA inhibition turned out to be 4%.
In the case of CAGAACGAGGTAAATC (sugars k3 d10 k3, PS), the target mRNA inhibition was 59%.
The same measure, in the same setting: with CAGAATGAAGTTAAGG (sugars k3 d10 k3, PS) the figure was 50%; with CAGACCTTATGCTTGG (sugars k4 d8 k4, PS), 26%.
On the same count and under the same terms, with CAGAGTTGTTCCACCC (sugars k3 d10 k3, PS) the figure was 62%; with CAGATAACGAGGTGCC (sugars k3 d10 k3, PS), 30%; with CAGCAAAACGCAGAGC (sugars k3 d10 k3, PS), 54%.
Same read-out and setting: with CAGCAGGTTTTGAGAC (sugars k3 d10 k3, PS) the figure was 20%; with CAGCATATTACAAACG (sugars k3 d10 k3, PS), 58%; with CAGCATCTAAGGCAAG (sugars k3 d10 k3, PS), 54%.
Regarding CAGGAAACCGCTGGCA (sugars k3 d10 k3, PS), the target mRNA inhibition came out at 74%.
On the same count and under the same terms, with CAGGGAGCGGCCGTGG (sugars k3 d10 k3, PS) the figure was 17%; with CAGTAACTTGACTTGA (sugars k3 d10 k3, PS), 39%.
